In paper PMC8119466, “A screen of FDA-approved drugs identifies inhibitors of protein tyrosine phosphatase 4A3 (PTP4A3 or PRL-3)” (Scientific Reports, 2021):
Structures can show the parent of a compound that is named as a salt. Where two headings read alike, the source gives them in different places.

How the values were obtained:
Format in all cases: biochemical
recombinant PRL-3 = biological target: T1, recombinant PRL-3 (Homo sapiens, UniProt O75365); test: In vitro phosphatase assay (DiFMUP hydrolysis), PRL-3; note: test concentration or dose not given here
T1 construct: 6xHis (N, cleaved yes); made in house; host or cells: E. coli One Shot BL21 Star

recombinant PRL-1 = biological target: T2, recombinant PRL-1 (Homo sapiens, UniProt Q93096); test: In vitro phosphatase assay (DiFMUP hydrolysis), PRL-1; note: test concentration or dose not given here
T2 construct: 6xHis (N, cleaved yes); made in house; host or cells: E. coli One Shot BL21 Star
T2 sequence (Q93096 1-173): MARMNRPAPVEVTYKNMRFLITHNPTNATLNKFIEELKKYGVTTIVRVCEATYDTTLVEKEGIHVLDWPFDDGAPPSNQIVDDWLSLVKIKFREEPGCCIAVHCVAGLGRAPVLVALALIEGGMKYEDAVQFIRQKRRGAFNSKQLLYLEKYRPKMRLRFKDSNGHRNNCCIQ

recombinant PRL-2 = biological target: T3, recombinant PRL-2 (Homo sapiens, UniProt Q12974); test: In vitro phosphatase assay (DiFMUP hydrolysis), PRL-2;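 note: PRL-2 activity read as DiFMUP hydrolysis after 20 min at room temperature with drug, enzyme first pre-reduced at 4 °C for 20 min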
T3 construct: 6xHis (N, cleaved yes); made in house; host or cells: E. coli One Shot BL21 Star
T3 sequence (Q12974 1-167): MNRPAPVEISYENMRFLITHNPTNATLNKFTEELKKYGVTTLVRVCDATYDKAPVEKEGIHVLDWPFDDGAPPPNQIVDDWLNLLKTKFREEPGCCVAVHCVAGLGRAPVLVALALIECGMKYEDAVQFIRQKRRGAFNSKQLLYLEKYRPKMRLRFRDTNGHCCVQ

[1] = FDA-approved drug screen, activity compared to DMSO
[2] = FDA-approved drug screen, compared to DMSO

T1 sequence (O75365 whole entry): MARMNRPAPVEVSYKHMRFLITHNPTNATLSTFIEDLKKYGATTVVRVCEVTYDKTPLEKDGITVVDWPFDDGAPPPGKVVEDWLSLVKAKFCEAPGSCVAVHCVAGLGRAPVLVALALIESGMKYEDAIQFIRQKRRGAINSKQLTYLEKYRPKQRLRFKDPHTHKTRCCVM

Structure (SMILES) | % Phosphatase Activity (compared to DMSO) PRL-3 (recombinant PRL-3; [2]) [%] | % Phosphatase Activity (compared to DMSO) PRL-1 (recombinant PRL-1; [2]) [%] | % Phosphatase Activity (compared to DMSO) PRL-2 (recombinant PRL-2; [2]) [%] | other results
Cc1cnc(Nc2ccc(OCCN3CCCC3)cc2)nc1Nc1cccc(S(=O)(=O)NC(C)(C)C)c1 [TG101348 (SAR302503)] |  |  |  | % Phosphatase Activity (compared to DMSO) PRL-3 (recombinant PRL-3; [1]): 95%; % Phosphatase Activity (compared to DMSO) PRL-1 (recombinant PRL-1; [1]): 97%; % Phosphatase Activity (compared to DMSO) PRL-2 (recombinant PRL-2; [1]): 96%
CC(C)NCC(O)COc1ccc(COCCOC(C)C)cc1 (stereo not drawn) [Bisoprolol fumarate] | 89 | 104 | 124 | 
CCC[S+]([O-])c1ccc2[nH]c(NC(=O)OC)nc2c1 (stereo not drawn) [Albendazole Oxide] | 95 | 93 | 100 | 
CCC[C@@H]1C[C@@H](C(=O)N[C@@H]([C@H]2O[C@H](SC)[C@H](O)[C@@H](O)[C@H]2O)[C@@H](C)O)N(C)C1 [Lincomycin HCl] | 76 | 109 | 111 | 
CCOC(=O)OC(C)OC1=C(C(=O)Nc2ccccn2)N(C)S(=O)(=O)c2ccccc21 (stereo not drawn) [Ampiroxicam] | 88 | 114 | 114 | 
CC(C(=O)O)c1ccc(CC2CCCC2=O)cc1 (stereo not drawn) [Loxoprofen] | 102 | 109 | 83 | 
S=c1nc[nH]c2nc[nH]c12 [Mercaptopurine (6-MP)] | 74 | 93 | 76 | 
Cl.O=C1Cc2cc(CCN3CCN(c4nsc5ccccc45)CC3)c(Cl)cc2N1 [Ziprasidone HCl] |  |  |  | % Phosphatase Activity (compared to DMSO) PRL-3 (recombinant PRL-3; [1]): 80%; % Phosphatase Activity (compared to DMSO) PRL-1 (recombinant PRL-1; [1]): 91%; % Phosphatase Activity (compared to DMSO) PRL-2 (recombinant PRL-2; [1]): 91%
CCCCCCCC(=O)N[C@H](CN1CCCC1)[C@H](O)c1ccc2c(c1)OCCO2.O=C(O)C(O)C(O)C(=O)O [Eliglustat Tartrate] | 96 | 96 | 91 | 
CN[C@@H]1[C@H](O[C@H]2[C@H](O[C@H]3[C@H](O)[C@@H](O)[C@H](NC(=N)N)[C@@H](O)[C@@H]3NC(=N)N)O[C@@H](C)[C@]2(O)CO)O[C@@H](CO)[C@H](O)[C@H]1O [Dihydrostreptomycin sulfate] | 110 | 89 | 90 | 
C[C@@H]1C/C=C/C=C/C=C/C=C/[C@H](O[C@@H]2O[C@H](C)[C@@H](O)[C@H](N)[C@@H]2O)C[C@@H]2O[C@](O)(C[C@@H](O)C[C@H]3O[C@@H]3/C=C/C(=O)O1)C[C@H](O)[C@H]2C(=O)O [Natamycin] | 78 | 96 | 82 | 
NCCc1ccc(O)c(O)c1 [Dopamine HCl] |  |  |  | % Phosphatase Activity (compared to DMSO) PRL-3 (recombinant PRL-3): 82%; % Phosphatase Activity (compared to DMSO) PRL-1 (recombinant PRL-1): 125%; % Phosphatase Activity (compared to DMSO) PRL-2 (recombinant PRL-2): 119%
O=c1[nH]c(=O)n(C2CCCO2)cc1F (stereo not drawn) [FT-207 (NSC 148958)] | 73 | 115 | 95 | 
CN(C)CCC(c1ccccc1)c1ccccn1 (stereo not drawn) [Pheniramine Maleate] | 70 | 98 | 104 | 
CC(C)(C)NC[C@H](O)COc1nsnc1N1CCOCC1 [Timolol Maleate] |  |  |  | % Phosphatase Activity (compared to DMSO) PRL-3 (recombinant PRL-3; [1]): 87%; % Phosphatase Activity (compared to DMSO) PRL-1 (recombinant PRL-1; [1]): 107%; % Phosphatase Activity (compared to DMSO) PRL-2 (recombinant PRL-2; [1]): 111%
CCC[C@@H]1C[C@@H](C(=O)N[C@@H]([C@H]2O[C@H](SC)[C@H](OP(=O)(O)O)[C@@H](O)[C@H]2O)[C@H](C)Cl)N(C)C1 [Clindamycin Phosphate] | 88 | 93 | 76 | 
COc1cccc(-c2ccc(NC(=O)C3=C(C(=O)O)CCC3)c(F)c2)c1 [Vidofludimus] |  |  |  | % Phosphatase Activity (compared to DMSO) PRL-3 (recombinant PRL-3; [1]): 91%; % Phosphatase Activity (compared to DMSO) PRL-1 (recombinant PRL-1; [1]): 97%; % Phosphatase Activity (compared to DMSO) PRL-2 (recombinant PRL-2; [1]): 72%
NCCCCCC(=O)O [(6-)ε-Aminocaproic acid] | 75 | 110 | 115 | 
CC[N+](CC)(CC)CCOc1cccc(OCC[N+](CC)(CC)CC)c1OCC[N+](CC)(CC)CC [Gallamine Triethiodide] | 84 | 104 | 105 | 

Structure (SMILES) | % Phosphatase Activity (compared to DMSO) PRL-3 (recombinant PRL-3; [2]) [%] | % Phosphatase Activity (compared to DMSO) PRL-1 (recombinant PRL-1; [2]) [%] | % Phosphatase Activity (compared to DMSO) PRL-2 (recombinant PRL-2; [2]) [%] | other results
COC(=O)C1=C(C)NC(C)=C(C(=O)OCCN(C)Cc2ccccc2)C1c1cccc([N+](=O)[O-])c1 (stereo not drawn) [Nicardipine HCl] | 68 | 85 | 80 | 
C[N+]1(C)[C@@H]2C[C@@H](OC(=O)[C@H](CO)c3ccccc3)C[C@H]1[C@@H]1O[C@@H]12 [Methscopolamine] | 88 | 86 | 107 | 
COc1cccc2c1C(=O)c1c(O)c3c(c(O)c1C2=O)C[C@@](O)(C(=O)CO)C[C@@H]3O[C@H]1C[C@H](N)[C@@H](O)[C@H](C)O1 [Epirubicin HCl] | 58 | 78 | 90 | 
CNC(=O)[C@@H](NC(=O)[C@H](CC(C)C)[C@H](O)C(=O)NO)C(C)(C)C [Marimastat(BB-2516)] | 91 | 85 | 77 | 
COc1nc(C)cnc1NS(=O)(=O)c1cccnc1-c1ccc(-c2nnco2)cc1 [Zibotentan (ZD4054)] |  |  |  | % Phosphatase Activity (compared to DMSO) PRL-3 (recombinant PRL-3; [1]): 94%; % Phosphatase Activity (compared to DMSO) PRL-1 (recombinant PRL-1; [1]): 99%; % Phosphatase Activity (compared to DMSO) PRL-2 (recombinant PRL-2; [1]): 97%
COC(=O)c1ccc2c(c1)NC(=O)/C2=C(\Nc1ccc(N(C)C(=O)CN2CCN(C)CC2)cc1)c1ccccc1 [Nintedanib (BIBF 1120)] | 73 | 92 | 106 | 
COC(=O)C1=CCCN(C)C1 [Arecoline] | 84 | 98 | 131 | 
COc1cc(C(=O)NC2CCCNC2)cc(OC)c1OC (stereo not drawn) [Troxipide] |  |  |  | % Phosphatase Activity (compared to DMSO) PRL-3 (recombinant PRL-3; [1]): 79%; % Phosphatase Activity (compared to DMSO) PRL-1 (recombinant PRL-1; [1]): 95%; % Phosphatase Activity (compared to DMSO) PRL-2 (recombinant PRL-2; [1]): 110%
CC(=O)[C@H]1CC[C@H]2[C@@H]3CC=C4C[C@@H](O)CC[C@]4(C)[C@H]3CC[C@]12C [Pregnenolone] | 88 | 89 | 101 | 
Cc1ccc(NC(=O)C2(c3ccc4c(c3)OC(F)(F)O4)CC2)nc1-c1cccc(C(=O)O)c1 [VX-809 (Lumacaftor)] |  |  |  | % Phosphatase Activity (compared to DMSO) PRL-3 (recombinant PRL-3; [1]): 90%; % Phosphatase Activity (compared to DMSO) PRL-1 (recombinant PRL-1; [1]): 112%; % Phosphatase Activity (compared to DMSO) PRL-2 (recombinant PRL-2; [1]): 96%
CCOc1ccccc1OCCN[C@H](C)Cc1ccc(OC)c(S(N)(=O)=O)c1 [Tamsulosin] |  |  |  | % Phosphatase Activity (compared to DMSO) PRL-3 (recombinant PRL-3; [1]): 83%; % Phosphatase Activity (compared to DMSO) PRL-1 (recombinant PRL-1; [1]): 96%; % Phosphatase Activity (compared to DMSO) PRL-2 (recombinant PRL-2; [1]): 107%
COCCc1ccc(OCC(O)CNC(C)C)cc1 (stereo not drawn) [Metoprolol Tartrate] | 98 | 89 | 109 | 
Clc1ccc(CCC(Cn2ccnc2)Sc2c(Cl)cccc2Cl)cc1 (stereo not drawn) [Butoconazole nitrate] | 98 | 97 | 109 | 
CO[C@@H]1[C@@H](OC(N)=O)[C@@H](O)[C@H](Oc2ccc3c(O)c(NC(=O)c4ccc(O)c(CC=C(C)C)c4)c(=O)oc3c2C)OC1(C)C [Novobiocin Sodium] | 70 | 94 | 87 | 
CCN1CCC[C@H]1CNC(=O)c1cc(S(N)(=O)=O)ccc1OC [Levosulpiride] | 84 | 98 | 103 | 
CC1CCc2c(N3CCC(O)CC3)c(F)cc3c(=O)c(C(=O)O)cn1c23 (stereo not drawn) [Nadifloxacin] | 86 | 133 | 108 | 
CC[C@H]1CN2CC[C@H]1C[C@@H]2[C@@H](O)c1ccnc2ccc(OC)cc12 [Hydroquinidine] | 92 | 105 | 120 | 
CC(=O)Nc1nnc(S(N)(=O)=O)s1 [Acetazolamide] | 88 | 91 | 97 | 
NC(=O)c1cn(Cc2c(F)cccc2F)nn1 [Rufinamide] | 77 | 91 | 91 | 
